Results taken from patent US20080045499A1, “Preferential Inhibition of Presenilin-1” (Elan Pharmaceuticals, Inc., priority 2006, published 2008).
Where two headings read alike, the source gives them in different places.

Legend:
[1] = target: T1, Presenilin-1-comprised γ-secretase (Homo sapiens, UniProt P49768); assay: Aβ1-x ELISA in Presenilin-1 transfected PS1/PS2 double knockout mouse fibroblasts; format: cell-based
T1 construct: expressed in transfected cells; host or cells: mouse fibroblasts derived from PS1/PS2 double knockout cells, pCF vector
From the text: (§1) A131-x represents any Aβ peptides longer than Aβ1-23, including Aβ38, Aβ40, and Aβ42, since Aβ1-x is defined operationally by an ELISA assay using proprietary antibody mAb 266 for capture and proprietary antibody mAb 3D6 for detection. The epitope for mAb266 is Aβ16-23, and the epitope for mAb 3D6 is Aβ1-5. […] Aβ40 ELISA employed antibodies mAb 266 as capture and 2G3 (specific for Ab40) as detection, respectively. Furthermore, Aβ42 ELISA employed antibodies mAb 266 as capture and 21F12 as detection, respectively. Hybridomas producing antibodies against Aβ16-23 were generated by standard murine fusion procedures as detailed in Kohler and Milstein (Nature 256:495 1975) and U.S. Pat. No. 4,666,829 which are hereby incorporated by reference in their entireties. See also “Detailed Description” herein. Briefly, two BALB/c mice immunized with Aβ13-28 conjugated to 2C-11 (a T-cell receptor monoclonal antibody) were sacrificed and the spleens removed. Mixed splenocytes were obtained by pressing the spleens through a 30 mesh stainless steel screen. These were fused with P3X63Ag8 murine myeloma cells (aminopterin sensitive) at a fusion ratio of 10:1 in 35% polyethylene-glycol. These cells were plated out in 96 well tissue culture plates in the presence of 2×10^6 thymocytes/ml. Hybridomas were selected for by growing the cells in the presence of aminopterin poisoned Dulbecco's modified Eagle's media augmented with hypoxanthine, thymine and 10% fetal bovine serum. Hybridomas were screened for reactivity against Aβ13-28 and AAP protein via ELISA. Positive clones were sub-cloned twice. Aliquots of the clones were frozen and stored in liquid nitrogen. Supernatants from positive clones were produced in large quantities for further purification of monoclonal antibodies.
(§2) For ELISA assays, each well of 96-well ELISA plates was coated with 100 μl of 10 μg/ml 266 in Well Coating Buffer (pH 8.5) at 4 degrees overnight, and blocked with 0.25% human BSA solution at 25 degrees for 120 minutes. The plate can be used directly without wash, after removing blocking solution.
(§3) ELISA assays were performed at room temperature. Fifty μl of conditioned medium from overnight culture of transfected cells, with or without gamma secretase inhibitors, were added to each well of ELISA plates, and incubated for 1 hour. After washing plates with Tris-buffered saline (TBS) plus 0.05% Tween-20, 50 μl biotinylated 3D6 antibody at 0.5 μg/ml was added to each well and incubate for 45 minutes. […] Next, plates were washed with Tris-buffered saline (TBS) plus 0.05% Tween-20, and 50 μl substrate (1-step slow TMB-Elisa, Pierce, Woburn, Mass., USA, catalogue number: 34024) was added to each well and incubated for 15 min. Finally, substrate reactions were terminate by adding to each well 15 ul 2 NH2SO4, and OD readings were obtained on SpectraMax Plus (Molecular Devices, Sunnyvale, Calif., USA). The Aβ concentration of samples was then obtained by comparing sample OD readings to those of standards.
(§4) EC50 values were derived by curve fitting of Aβ1-x levels, for samples treated with various concentrations of gamma secretase inhibitors, with XLfit software program (IDBS, Alameda, Calif., USA). Differences in EC50 values obtained for Presenilin-1 transfected cells and Presenilin-2 transfected cells exposed to a test compound served as an indicator of differential inhibition.
(§5) Transfected mouse fibroblasts derived from the PS1/PS2 double knockout cells are grown at 37 degree under 10% CO2 in Dulbecco's modified Eagle's medium (DMEM) containing 2-10% fetal bovine serum (FBS) and 100 μg/ml penicillin/streptomycin (Pen/Strp) (Invitrogen Corporation, Carlsbad, Calif., USA).
(§6) Cell culture medium is then removed from the transfected cell lines and analyzed for Aβ1-x levels by ELISA assay, as described in Example 1. ELISA assays are performed using ELISA plates coated with the mAb 266 to capture Aβ peptides and then by detecting Aβ peptides with biotinylated mAb 3D6.

[2] = test system: Presenilin-1-comprised γ-secretase relative to Presenilin-2-comprised γ-secretase; assay: PS1/PS2 selectivity: ratio of EC50 in Presenilin-2 and Presenilin-1 transfected cells; format: cell-based, human; conditions: for PS2/PS1 EC50 ratio: EC50 of Presenilin-2 transfected cells over Presenilin-1 transfected cells
From the text: as §4
as §6, with “3D6. EC50 values are derived for all of the test compounds. Differences in EC50 values obtained for Presenilin-1 transfected cells and Presenilin-2 transfected cells exposed to a test compound serve as an indicator of differential inhibition.” for “3D6.”
For example, several tested compounds are sulfonamide compounds, while several are non-sulfonamide compounds. The ratio of the EC50 value obtained for Presenilin-2 transfected cells and Presenilin-1 transfected cells (indicated in the last column of Table I) indicates the degree to which the test compound is capable of preferentially inhibiting Presenilin-1. […] In Table 2, the values shown in columns A, B and C are EC50 values (nM). Where inhibition was very low, EC50 values were not generated by the program; thus EC50 values are not provided. Rather, percent of inhibition was estimated based on the inhibition curve generated by the program. Percentages indicate percentage inhibition at a compound concentration of 10 uM. […]

[3] = target: T2, Presenilin-2-comprised γ-secretase (Homo sapiens, UniProt P49810); assay: Aβ1-x ELISA in Presenilin-2 transfected PS1/PS2 double knockout mouse fibroblasts; format: cell-based; conditions: for inhibition at 10 µM: compound concentration of 10 uM, estimated from the inhibition curve
T2 construct: expressed in transfected cells; host or cells: mouse fibroblasts derived from PS1/PS2 double knockout cells, pCF vector
From the text: as §1, §2, §3, §4, §5, §6

293sw = 293sw IC50 of gamma-secretase inhibitors; format: cell-based
[4] = column A, Aβ1-x, Presenilin-1 transfected cells, overnight, read-out: PS1 EC50 (nM) A
[5] = column B, Aβ1-x, Presenilin-1 transfected cells, overnight, read-out: PS1 EC50 (nM) B
[6] = column A, read-out: PS2 percentage inhibition, column A
[7] = column B, read-out: PS2 percentage inhibition, column B
[8] = column A, Aβ1-x, Presenilin-2 transfected cells, overnight, read-out: PS2 EC50* (nM) A
[9] = column B, Aβ1-x, Presenilin-2 transfected cells, overnight, read-out: PS2 EC50* (nM) B
[10] = mean values from 2 independent experiments (FIG. 11)

| EC50 [1, 4] | EC50 [1, 5] | PS2/PS1 EC50 ratio [2] | EC50 [3, 8] | EC50 [3, 9] | SMILES | IC50 (293sw) | further results |
| --- | --- | --- | --- | --- | --- | --- | --- |
| 228 nM | 425 nM | ˜30 |  |  | COc1ccc(CN(C2CCCCNC2=O)S(=O)(=O)c2ccc(Cl)cc2)cc1OC (stereo not drawn) |  | inhibition at 10 µM [3, 6]: 45%; inhibition at 10 µM [3, 7]: 50% |
| 385 nM | 364 nM | ˜26 |  |  | COc1ccc(CN([C@@H](CO)CC(C)C)S(=O)(=O)c2ccc(Cl)cc2)cc1OC | 123 nM | inhibition at 10 µM [3, 6]: 47%; inhibition at 10 µM [3, 7]: 48% |
| 49 nM | 48 nM | 10 | 606 nM | 404 nM | COc1ccc(CN(C2CCCCC2C)S(=O)(=O)c2ccc(Cl)cc2)cc1OC (stereo not drawn) | 55 nM |  |
| 3720 nM | 6960 nM | >10 |  |  | O=C1NCCCC[C@H]1N(CCCN1C(=O)c2ccccc2C1=O)S(=O)(=O)c1ccc(Cl)cc1 | 221 nM | inhibition at 10 µM [3, 6]: 28%; inhibition at 10 µM [3, 7]: 4% |
| 1410 nM | 928 nM | >10 |  |  | CCCCN([C@@H]1CCCCNC1=O)S(=O)(=O)c1ccc(Cl)cc1 | 192 nM | inhibition at 10 µM [3, 6]: 26%; inhibition at 10 µM [3, 7]: 15% |
| 370 nM | 263 nM | ˜30 |  |  | O=C1NCCCC[C@H]1N(Cc1cnc(N2CCCCC2)s1)S(=O)(=O)c1ccc(Cl)cc1 | 121 nM | inhibition at 10 µM [3, 6]: 47%; inhibition at 10 µM [3, 7]: 44% |
| 2170 nM | 1980 nM | >10 |  |  | C/C(=C\c1ccccc1)CN([C@@H]1CCNC1=O)S(=O)(=O)c1ccc(Cl)cc1 | 337 nM | inhibition at 10 µM [3, 6]: 1%; inhibition at 10 µM [3, 7]: 0% |
| 136 nM | 161 nM | 22 | 3000 nM | 3460 nM | COc1ccc(CN(C2CC(C)CCC2C)S(=O)(=O)c2ccc(Cl)cc2)cc1 (stereo not drawn) | 176 nM |  |
| 46 nM | 65 nM | 61 | 4000 nM | 2780 nM | O=C1NCCCC[C@H]1N(C/C=C/c1cccnc1)S(=O)(=O)c1ccc(Cl)cc1 | 42 nM |  |
| 1280 nM | 686 nM | >10 |  |  | O=C1NCCCC[C@H]1N(Cc1ccc(Br)cc1)S(=O)(=O)CC(F)(F)F | 308 nM | inhibition at 10 µM [3, 6]: 20%; inhibition at 10 µM [3, 7]: 19% |
| 212 nM | 116 nM | 11 | 2100 nM | 2580 nM | CSc1ncccc1-c1nc(CN([C@@H]2CCCCNC2=O)S(=O)(=O)c2ccc(Cl)cc2)no1 | 112 nM |  |
| 1390 nM | 787 nM | 4 | 5860 nM | 3320 nM | CCC(C)N(C(C)CC)S(=O)(=O)c1ccc(Cl)nc1 (stereo not drawn) | 388 nM |  |
| 143 nM | 139 nM | 4 | 465 nM | 777 nM | C[C@H](NC(=O)c1ccc(CN([C@@H]2CCCCNC2=O)S(=O)(=O)c2ccc(Cl)cc2)cc1)c1ccccc1 |  |  |
| 57 nM | 44 nM | 1.5 | 60 nM | 91 nM | C[C@@H](NC(=O)c1ccc(CN([C@@H]2CCCCNC2=O)S(=O)(=O)c2ccc(Cl)cc2)cc1)c1ccccc1 | 16 nM |  |
| 105 nM | 98 nM | 8 | 750 nM | 809 nM | Cc1nc(-c2ccc(CN([C@@H]3CCCCNC3=O)S(=O)(=O)c3ccc(Cl)cc3)cc2)no1 | 44 nM |  |
| 18 nM | 23 nM | 47 | 922 nM | 951 nM | O=C1NCCCC[C@H]1N(Cc1ccc2snnc2c1)S(=O)(=O)c1ccc(Cl)cc1 | 8 nM |  |
| 36 nM | 31 nM | 37 | 1410 nM | 1040 nM | O=C1NCCCC[C@H]1N(Cc1ccc2nccnc2c1)S(=O)(=O)c1ccc(Cl)cc1 | 9 nM |  |
| 19 nM | 19 nM | 1.8 | 30 nM | 38 nM | O=C(NCc1ccccc1)c1ccc(CN([C@@H]2CCCCNC2=O)S(=O)(=O)c2ccc(Cl)cc2)cc1 | 10 nM |  |
|  |  |  |  |  | C[C@H](NC(=O)[C@@H](O)c1cc(F)cc(F)c1)C(=O)N[C@@H]1C(=O)N(C)c2ccccc2-c2ccccc21 | 0.064 nM |  |
|  |  |  |  |  | COc1ccc(CN([C@H]2CCCCNC2=O)S(=O)(=O)c2ccc(Cl)cc2)cc1OC | 10000 nM | EC50 ([1]; column A, bound given in μM, read-out: PS1 EC50 A): > 10000 nM; EC50 ([1]; column B, bound given in μM, read-out: PS1 EC50 B): > 10000 nM; EC50 ([3]; column A, bound given in μM, read-out: PS2 EC50 A): > 10000 nM; EC50 ([3]; column B, bound given in μM, read-out: PS2 EC50 B): > 10000 nM |
| 30 nM | 63 nM | 46 | 2420 nM | 1880 nM | O=C1NCCCC[C@H]1N(Cc1cc2ccccc2o1)S(=O)(=O)c1ccc(Cl)cc1 |  | EC50 ([1]; column C, Aβ1-x, Presenilin-1 transfected cells, overnight, read-out: PS1 EC50 (nM) C): 50 nM; EC50 ([3]; column C, Aβ1-x, Presenilin-2 transfected cells, overnight, read-out: PS2 EC50* (nM) C): 2380 nM |
|  |  |  |  |  | C[C@H](NC(=O)Cc1cc(F)cc(F)c1)C(=O)N[C@H](C(=O)OC(C)(C)C)c1ccccc1 [DAPT, reference compound] |  | fold more selective for PS2 [2, 10]: 2 fold |
|  |  |  |  |  | CC(C)C[C@H](NC(=O)[C@H](Cc1ccccc1)C[C@@H](O)[C@H](Cc1ccccc1)NC(=O)OC(C)(C)C)C(=O)N[C@@H](Cc1ccccc1)C(N)=O [L-685,458, reference compound] |  | fold more selective for PS1 [2, 10]: ~3 fold |
| 21 nM | 17 nM | 12 | 223 nM | 247 nM | C[C@H](c1ccc(F)cc1CCCC(=O)O)N(c1cc(F)ccc1F)S(=O)(=O)c1ccc(Cl)cc1 [reference compound] |  |  |
